Our source for the IC50 values is patent publication US9850206B2, “S1P and/or ATX modulating agents” (BIOGEN MA INC., priority 2012, dated 2017).

Where two headings read alike, the source gives them in different places. A value given as a limit tells only on which side of the number the result lay.

Assay [1] deals with T1, S1P4 (Homo sapiens, UniProt O95977).
T1 sequence (O95977 1-384): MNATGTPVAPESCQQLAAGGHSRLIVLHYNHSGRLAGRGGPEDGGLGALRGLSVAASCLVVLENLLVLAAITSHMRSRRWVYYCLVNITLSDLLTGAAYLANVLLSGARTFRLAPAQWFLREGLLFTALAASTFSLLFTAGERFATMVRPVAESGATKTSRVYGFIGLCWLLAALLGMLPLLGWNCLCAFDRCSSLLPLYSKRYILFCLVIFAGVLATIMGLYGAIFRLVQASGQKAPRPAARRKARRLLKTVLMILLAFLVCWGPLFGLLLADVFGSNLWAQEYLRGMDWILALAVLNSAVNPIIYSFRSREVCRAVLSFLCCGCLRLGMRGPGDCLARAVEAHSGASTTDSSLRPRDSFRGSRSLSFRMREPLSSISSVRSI
In words: S1P receptor activity assay (calcium flux, FLIPR TETRA), S1P4. In kind it is cell-based. From the text: (§1) Agonist percentage activation determinations were obtained by assaying sample compounds and referencing the Emax control for each receptor profiled. Antagonist percentage inhibition determinations were obtained by assaying sample compounds and referencing the control EC80 wells for each receptor profiled. The samples were run using a “Single Addition” assay protocol for the agonist and antagonist assay run. The protocol design was as follows:
(§2) Master stock solution: Unless specified otherwise, all sample compounds were diluted in 100% anhydrous DMSO including all serial dilutions. All control wells contained identical solvent final concentrations as did the sample compound wells.
(§3) Compound plate for assay: The sample compounds were transferred from a master stock solution into a daughter plate that was used in the assay. Each sample compound was diluted into assay buffer (1×HBSS with 20 mM HEPES and 2.5 mM Probenecid) at an appropriate concentration to obtain final concentrations.
(§4) Sample compounds were plated in an eight-point, four-fold dilution series in duplicate with a top concentration of 10 μM. The concentrations described here reflect the final concentration of the compounds during the antagonist assay.
(§5) Reference agonists were handled as mentioned above serving as assay control. The reference agonists were handled as described above for Emax.
(§6) Assay was read for 180 seconds using the […] (This assay run added sample compounds and reference agonist to respective wells). At the completion of the first “Single Addition” assay run, assay plate was removed from the […] and placed at 25° C. for seven (7) minutes.
(§7) Using the EC80 values determined during the agonist assay, stimulated all pre-incubated sample compound and reference antagonist (if applicable) wells with EC80 of reference agonist. Read for 180 seconds using the […] (This assay added reference agonist to respective wells—then fluorescence measurements were collected to calculate percentage inhibition values).
(§8) All plates were subjected to appropriate baseline corrections. Once baseline corrections were processed, maximum fluorescence values were exported and data manipulated to calculate percentage activation, percentage inhibition and Z′.

The target in assay [2] is S1P1 (Homo sapiens, UniProt P21453). In words: S1P receptor activity assay (calcium flux, FLIPR TETRA), S1P1. Type of assay: cell-based.
S1P1, sequence (P21453 whole entry): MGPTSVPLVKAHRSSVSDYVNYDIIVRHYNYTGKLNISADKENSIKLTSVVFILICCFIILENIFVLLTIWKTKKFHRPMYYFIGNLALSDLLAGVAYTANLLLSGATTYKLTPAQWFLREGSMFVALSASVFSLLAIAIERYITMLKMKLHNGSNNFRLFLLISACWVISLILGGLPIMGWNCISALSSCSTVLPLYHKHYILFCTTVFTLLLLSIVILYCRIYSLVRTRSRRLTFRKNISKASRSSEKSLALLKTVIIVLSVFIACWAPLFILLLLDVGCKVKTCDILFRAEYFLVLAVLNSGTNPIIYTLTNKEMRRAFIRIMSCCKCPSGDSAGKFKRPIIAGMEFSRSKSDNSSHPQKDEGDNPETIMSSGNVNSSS
Text: as §1, §2, §3, §4, §5, §6, §7, §8
In general terms: Calcium flux is commonly read through the fluorescence of an indicator in the cells.

Assay [3] addresses T2, Human ATX protein (Homo sapiens, UniProt Q13822).
T2 construct: made in house
The experiment in a line: Autotaxin (ATX) FRET assay with FS-3 substrate. Type of assay: biochemical. From the text: ATX (Autotaxin) is a 125 KDa glycoprotein with lysophospholipase D (LPLD) activity that generates the bioactive lipid lysophosphatidic acid (LPA) from lysophosphatidylcholine (LPC). The ATX biochemical assay utilizes a FRET (fluorescence resonance energy transfer) technology platform. […] ATX catalyzes the hydrolysis of the substrate which separates the dabsyl quencher from the fluorescein reporter, which becomes fluorescent. The reaction is monitored by a SpectraMax M5 (Molecular Devices, Sunnyvale, Calif.) with at excitation wavelength 485 nm and emission wavelength 535 nm.
Fatty acid free-BSA (Sigma A8806): 10 mg/mL in H2O, stored at 4° C.
2×ATX assay buffer: 100 mM Tris, 280 mM NaCl, 10 mM KCl, 2 mM CaCl2, 2 mM MgCl2, pH 7.4.
Human ATX protein: expressed and purified in house. Stored at −80° C.
Substrate FS-3 (Echelon, L-2000): 100 μg in 77.74 μL H2O (1 mM stock), stored at −20° C.
Compound dilution—All compounds were provided at 10 mM in 100% DMSO. In the first well, 2 μL of 10 mM compound was added to 78 μL of DMSO (1:40 dilution). In subsequent wells 3-fold dilution (total 10 dilutions) were performed.
1×ATX assay buffer was made up with a final concentration of 1 mg/mL fatty acid free-BSA using 2×ATX assay buffer, 10 mg/ml fatty acid free-BSA and ddH2O.
38 μL was added per well to the assay plate. The final concentration of ATX in the reaction as 1.0 μg/mL.
2 μL per well of compounds was transferred to provide the desired concentration. The plate was centrifuged, then incubated at room temperature for 30 minutes on the shaker.
FS-3 was diluted with 1×ATX assay buffer to a concentration of FS-3 of 10 μM (5×). Then, 10 μL was added per well to the assay plate. The final concentration of FS-3 in the reaction was 2 μM. The plate was centrifuged. The plate was kept shaking at room temperature for 2 hours. Because FS-3 substrate is light sensitive, plates were kept covered and protected from light.

The target of assay [4] is S1P5 (Homo sapiens, UniProt Q9H228). The experiment in a line: S1P receptor activity assay (calcium flux, FLIPR TETRA), S1P5. Type of assay: cell-based.
S1P5, sequence (Q9H228 whole entry): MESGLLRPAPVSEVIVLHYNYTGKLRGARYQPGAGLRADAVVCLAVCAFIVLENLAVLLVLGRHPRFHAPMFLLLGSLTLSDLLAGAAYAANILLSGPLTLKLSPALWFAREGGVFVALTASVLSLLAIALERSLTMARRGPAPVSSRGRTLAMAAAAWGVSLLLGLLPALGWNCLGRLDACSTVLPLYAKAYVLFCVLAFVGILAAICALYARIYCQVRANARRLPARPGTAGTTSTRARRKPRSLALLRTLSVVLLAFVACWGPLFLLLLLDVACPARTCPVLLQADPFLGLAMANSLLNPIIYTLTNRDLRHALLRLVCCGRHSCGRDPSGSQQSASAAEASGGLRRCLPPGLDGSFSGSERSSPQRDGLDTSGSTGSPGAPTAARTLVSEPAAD
Text: as §1, §2, §3, §4, §5, §6, §7, §8

The mark [5] stands for this setting: calcium flux, top concentration 10 μM, the >5 μM sentence says only 'for S1P4', read-out: IC50 for S1P4 agonist activity.
Setting [6] is: calcium flux, top concentration 10 μM, the >5 μM sentence says only 'for S1P1', read-out: IC50 for S1P1 agonist activity.
Setting [7] is: FS-3 2 μM, ATX 1.0 μg/mL, 2 hours at room temperature, read-out: IC50 (ATX).
Where [8] appears, read: calcium flux, top concentration 10 μM, read-out: IC50 for S1P5.

For the compound `CC(C)(C)[C@H]1CC[C@H](Oc2ccc(NC3CCCN(CCC(=O)O)C3)nc2)CC1` (relative stereo) [Example 12, 3-(3-(5-(trans-4-tert-butylcyclohexyloxy)pyridin-2-ylamino)piperidin-1-yl)propanoic acid], the IC50 (as a rule, the concentration that gives 50% inhibition) is ≤ 2 µM in assay [1] (setting [5]), > 5 µM in assay [2] (setting [6]) and > 10 µM in assay [3] (setting [7]).
The like results for `CC(C)(C)[C@H]1CC[C@H](Oc2ccc(NC3CCCN(CCC(=O)O)C3)cc2)CC1` (relative stereo) [Example 13, 3-(3-((4-((trans-4-(tert-Butyl)cyclohexyl)oxy)phenyl)amino)piperidin-1-yl)propanoic acid] were, in that order, 2 to 5 µM, > 5 µM and > 10 µM.
As for `CC(C)(C)[C@H]1CC[C@@H](Oc2ccc(C3CCCN(CCCC(=O)O)C3)cc2)CC1` (stereo in doubt) [Example 4, 4-(3-(4-(cis-4-tert-Butylcyclohexyloxy)phenyl)piperidin-1-yl)butanoic acid], the IC50 in assay [1] (setting [5]) is > 5 µM; in assay [4] (setting [8]), > 5 µM; in assay [2] (setting [6]), > 5 µM; in assay [3] (setting [7]), 5 to 10 µM.
`CCCCCCCCOc1ccc(C2CCCN(CCC(=O)O)C2)cc1` (stereo not drawn) [Example 1, 3-(3-(4-(Octyloxy)phenyl)piperidin-1-yl)propanoic acid]: the IC50 in assay [1] (setting [5]), in assay [4] (setting [8]) and in assay [2] (setting [6]) was > 5 µM throughout.
As for `CCCCCCCCOc1ccc(C2CCCN(CCCC(=O)O)C2)cc1` (stereo not drawn) [Example 2, 4-(3-(4-(Octyloxy)phenyl)piperidin-1-yl)butanoic acid], the IC50 in assay [1] (setting [5]) is ≤ 2 µM; in assay [4] (setting [8]) it was > 5 µM; in assay [2] (setting [6]), > 5 µM.
As for `CC(C)(C)[C@H]1CC[C@H](Oc2ccc(C3CCCN(CCC(=O)O)C3)cc2)CC1` (stereo partly drawn) [Example 3, 3-(3-(4-(trans-4-tert-Butylcyclohexyloxy)phenyl)piperidin-1-yl)propanoic acid], in assay [3] (setting [7]), the IC50 lay in the range of 5 to 10 µM.
`CCCCCCCCOc1cccc(C2CCCN(CCC(=O)O)C2)c1` (stereo not drawn) [Example 5, 3-(3-(3-(Octyloxy)phenyl)piperidin-1-yl)propanoic acid]: the IC50 was ≤ 2 µM in assay [1] (setting [5]), > 5 µM in assay [4] (setting [8]), > 5 µM in assay [2] (setting [6]) and 5 to 10 µM in assay [3] (setting [7]).
On to `CCCCCCCCOc1cccc(C2CCCN(CCCC(=O)O)C2)c1` (stereo not drawn) [Example 6, 4-(3-(3-(Octyloxy)phenyl)piperidin-1-yl)butanoic acid], for which the IC50 in assay [1] (setting [5]) is ≤ 2 µM; in assay [4] (setting [8]) it was > 5 µM; in assay [2] (setting [6]), > 5 µM; in assay [3] (setting [7]) it was 5 to 10 µM.
For the compound `CC(C)(C)[C@H]1CC[C@H](Oc2cccc(C3CCCN(CCC(=O)O)C3)c2)CC1` (stereo partly drawn) [Example 7, 3-(3-(3-((trans-4-(tert-Butyl)cyclohexyl)oxy)phenyl)piperidin-1-yl)propanoic acid], the figures for the 50% inhibitory concentration (IC50) in assay [1] (setting [5]), in assay [4] (setting [8]) and in assay [3] (setting [7]) were ≤ 2 µM, > 5 µM and 5 to 10 µM, respectively.
The like results for `CC(C)(C)[C@H]1CC[C@H](Oc2cccc(C3CCCN(CCCC(=O)O)C3)c2)CC1` (stereo partly drawn) [Example 8, 4-(3-(3-((trans-4-(tert-Butyl)cyclohexyl)oxy)phenyl)piperidin-1-yl)butanoic acid] were, in that order, ≤ 2 µM, > 5 µM and 5 to 10 µM.
`CCCCCCCCOc1ccc(C2CCCC(N3CCC(C(=O)O)CC3)C2)cc1` (stereo not drawn) [Example 9, 1-(3-(4-(octyloxy)phenyl)cyclohexyl)piperidine-4-carboxylic acid]: the IC50 was > 5 µM in assay [1] (setting [5]), > 5 µM in assay [4] (setting [8]), > 5 µM in assay [2] (setting [6]) and > 10 µM in assay [3] (setting [7]).
For the compound `CC(C)(C)[C@H]1CC[C@H](Oc2ccc(C3CCCC(N4CCC(C(=O)O)CC4)C3)cc2)CC1` (stereo partly drawn) [Example 10, 1-(3-(4-(trans-4-tert-butylcyclohexyloxy)phenyl)cyclohexyl)piperidine-4-carboxylic acid], the IC50 was > 5 µM in assay [1] (setting [5]), > 5 µM in assay [4] (setting [8]), > 5 µM in assay [2] (setting [6]) and > 10 µM in assay [3] (setting [7]).
Take `CCCCCCCCOc1ccc(NC2CCCN(CCC(=O)O)C2)nc1` (stereo not drawn) [Example 11, 3-(3-(5-(Octyloxy)pyridin-2-ylamino)piperidin-1-yl)propanoic acid]: the IC50 in assay [1] (setting [5]) is > 5 µM; in assay [2] (setting [6]) it was > 5 µM; in assay [3] (setting [7]), 5 to 10 µM.
As for `CCCCCCCCOc1ccc(N2CCN(CCCC(=O)O)CC2)cc1` [Example 15, 4-(4-(4-(Octyloxy)phenyl)piperazin-1-yl)butanoic acid], the IC50 was ≤ 2 µM in assay [1], > 5 µM in assay [4], > 5 µM in assay [2] and > 10 µM in assay [3].
Regarding `CCCCCCCCOc1ccc(N2CCN(CCC(=O)O)CC2)nc1` [Example 22, 3-(4-(5-(Octyloxy)pyridin-2-yl)piperazin-1-yl)propanoic acid], the IC50 in assay [1] (setting [5]), in assay [4] (setting [8]) and in assay [2] (setting [6]) was > 5 µM throughout.
Take `CC(C)(C)[C@H]1CC[C@H](Oc2ccc(C3CCN(CCC(=O)O)C3)cc2)CC1` (stereo partly drawn) [Example 23, 3-(3-(4-((trans-4-(tert-Butyl)cyclohexyl)oxy)phenyl)pyrrolidin-1-yl)propanoic acid]: the IC50 was ≤ 2 µM in assay [1] (setting [5]), > 5 µM in assay [4] (setting [8]) and > 5 µM in assay [2] (setting [6]).
For the compound `CC(C)(C)[C@H]1CC[C@H](Oc2ccc(C3CCN(CCCC(=O)O)C3)cc2)CC1` (stereo partly drawn) [Example 24, 4-(3-(4-((trans-4-(tert-Butyl)cyclohexyl)oxy)phenyl)pyrrolidin-1-yl)butanoic acid], the half-inhibitory concentration (IC50) is ≤ 2 µM in assay [1] (setting [5]), > 5 µM in assay [4] (setting [8]) and > 5 µM in assay [2] (setting [6]).
With `CC(C)(C)[C@H]1CC[C@H](Oc2ccc(C3CCCN(C4CCC(C(=O)O)CC4)C3)cc2)CC1` (stereo partly drawn) [Example 25, 4-(3-(4-((trans-4-(tert-Butyl)cyclohexyl)oxy)phenyl)piperidin-1-yl)cyclohexanecarboxylic acid], the IC50 in assay [1] (setting [5]) was ≤ 2 µM; in assay [2] (setting [6]), > 5 µM.
As for `CC(C)(C)[C@H]1CC[C@H](Oc2ccc(C3=CCN(CCCCC(=O)O)CC3)cc2)CC1` [Example 49, 5-(4-(4-((trans-4-(tert-Butyl)cyclohexyl)oxy)phenyl)-5,6-dihydropyridin-1(2H)-yl)pentanoic acid], the 50% inhibitory concentration (IC50) in assay [1] was ≤ 2 µM; in assay [4] (setting [8]) it was > 5 µM; in assay [2], > 5 µM.
As for `CC(C)(C)[C@H]1CC[C@H](Oc2ccc(C3CCN(CCCCC(=O)O)CC3)cc2)CC1` [Example 50, 5-(4-(4-((trans-4-(tert-Butyl)cyclohexyl)oxy)phenyl)piperidin-1-yl)pentanoic acid], the 50% inhibitory concentration (IC50) in assay [1] (setting [5]) is ≤ 5 µM; in assay [4] (setting [8]) it was > 5 µM; in assay [2] (setting [6]) it was > 5 µM.
